Where “and” joins values, the source holds several entries; their conditions need not be identical. Equal entries are not always repeated. Inconclusive results and toxic doses are left out. Rule as the data show it: active = T/C of 150% or more; inactive = T/C below 125%.
System: L1210 leukemia ip in BDF1 mice, survival T/C
Assay: NCI In Vivo Anticancer Drug Screen. Data for tumor model L1210 Leukemia (intraperitoneal) in B6D2F1 (BDF1) mice
Settings: endpoint: mean survival time, higher = longer survival
Procedure, shortened: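 Tumor cells were implanted, animals were treated, and survival was followed. The result divides the treated measurement by the vehicle-control measurement.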

[1] = dose: 25.0 mg/kg/injection, schedule: Q04DX003 (ip), vehicle: Klucel (hydroxypropylcellulose) (HPC)
[2] = dose: 50.0 mg/kg/injection, schedule: Q01DX009 (ip), vehicle: Klucel (hydroxypropylcellulose) (HPC)
[3] = dose: 50.0 mg/kg/injection, schedule: Q04DX003 (ip), vehicle: Klucel (hydroxypropylcellulose) (HPC)
[4] = dose: 100.0 mg/kg/injection, schedule: Q04DX003 (ip), vehicle: Klucel (hydroxypropylcellulose) (HPC)
[5] = dose: 100.0 mg/kg/injection, schedule: Q01DX001 (ip), vehicle: saline with Tween-80
[6] = dose: 200.0 mg/kg/injection, schedule: Q01DX001 (ip), vehicle: saline with Tween-80
[7] = dose: 400.0 mg/kg/injection, schedule: Q01DX001 (ip), vehicle: saline with Tween-80
[8] = dose: 100.0 mg/kg/injection, schedule: Q01DX009 (ip), vehicle: Klucel (hydroxypropylcellulose) (HPC)
[9] = dose: 200.0 mg/kg/injection, schedule: Q01DX009 (ip), vehicle: Klucel (hydroxypropylcellulose) (HPC)
[10] = dose: 100.0 mg/kg/injection, schedule: Q01DX001 (ip), vehicle: saline
[11] = dose: 200.0 mg/kg/injection, schedule: Q01DX001 (ip), vehicle: saline
[12] = dose: 400.0 mg/kg/injection, schedule: Q01DX001 (ip), vehicle: saline
[13] = dose: 75.0 mg/kg/injection, schedule: Q01DX001 (ip), vehicle: saline

Measured: T/C

CC(C)(C)C1CCC(NC(=O)C(Cl)(Cl)Cl)CC1 (stereo unspecified)
inactive: dose: 6.0 mg/kg/injection, schedule: Q01DX009 (ip), vehicle: Klucel (hydroxypropylcellulose) (HPC) 100 % of control | dose: 12.0 mg/kg/injection, schedule: Q01DX009 (ip), vehicle: Klucel (hydroxypropylcellulose) (HPC) 107 % of control | dose: 25.0 mg/kg/injection, schedule: Q01DX009 (ip), vehicle: Klucel (hydroxypropylcellulose) (HPC) 96 % of control and 105 % of control | [1] 94 % of control | [2] 86 % of control | [3] 97 % of control | [4] 96 % of control

CC1N(N=O)CC1(Cl)c1ccccc1 (stereo unspecified)
inactive: dose: 100.0 mg/kg/injection, schedule: Q04DX002 (ip), vehicle: saline 98 % of control | dose: 200.0 mg/kg/injection, schedule: Q04DX002 (ip), vehicle: saline 98 % of control | dose: 400.0 mg/kg/injection, schedule: Q04DX002 (ip), vehicle: saline 102 % of control

CN(C)CCNC1c2ccccc2CCc2ccccc21
inactive: dose: 18.75 mg/kg/injection, schedule: Q04DX003 (ip), vehicle: saline 98 % of control | dose: 37.5 mg/kg/injection, schedule: Q04DX003 (ip), vehicle: saline 104 % of control | dose: 75.0 mg/kg/injection, schedule: Q04DX003 (ip), vehicle: saline 101 % of control

CC[N+](C)(C)CCCOC(=O)C1C2CC3CC(C2)CC1C3 (stereo unspecified)
inactive: dose: 25.0 mg/kg/injection, schedule: Q04DX002 (ip), vehicle: saline 88 % of control | dose: 50.0 mg/kg/injection, schedule: Q04DX002 (ip), vehicle: saline 98 % of control

CCc1ccc2c(OC(C)=O)c3ccccc3c(OC(C)=O)c2c1
inactive: [5] 95 % of control | [6] 95 % of control | [7] 93 % of control

CCOC(=O)CCC(NC(=O)c1ccc(NCc2nnc3nc(N)nc(SCc4ccccc4)c3n2)cc1)C(=O)OCC (stereo unspecified)
inactive: [5] 103 % of control | [6] 100 % of control | [7] 105 % of control

O=C(Nc1cc(Cl)ccc1O)Nc1cc(C(F)(F)F)ccc1Cl
inactive: dose: 100.0 mg/kg/injection, schedule: Q01DX001 (ip), vehicle: carboxymethylcellulose (CMC) 101 % of control | dose: 100.0 mg/kg/injection, schedule: Q01DX009 (ip), vehicle: carboxymethylcellulose (CMC) 95 % of control and 103 % of control | dose: 100.0 mg/kg/injection, schedule: Q04DX002 (ip), vehicle: carboxymethylcellulose (CMC) 97 % of control and 104 % of control | dose: 100.0 mg/kg/injection, schedule: Q04DX003 (ip), vehicle: carboxymethylcellulose (CMC) 97 % of control | dose: 200.0 mg/kg/injection, schedule: Q01DX001 (ip), vehicle: carboxymethylcellulose (CMC) 97 % of control | dose: 200.0 mg/kg/injection, schedule: Q01DX009 (ip), vehicle: carboxymethylcellulose (CMC) 97 % of control and 103 % of control | dose: 200.0 mg/kg/injection, schedule: Q04DX002 (ip), vehicle: carboxymethylcellulose (CMC) 97 % of control and 104 % of control | dose: 200.0 mg/kg/injection, schedule: Q04DX003 (ip), vehicle: carboxymethylcellulose (CMC) 97 % of control | dose: 400.0 mg/kg/injection, schedule: Q01DX001 (ip), vehicle: carboxymethylcellulose (CMC) 98 % of control | dose: 400.0 mg/kg/injection, schedule: Q01DX009 (ip), vehicle: carboxymethylcellulose (CMC) 92 % of control and 97 % of control | dose: 400.0 mg/kg/injection, schedule: Q04DX002 (ip), vehicle: carboxymethylcellulose (CMC) 98 % of control and 90 % of control | dose: 400.0 mg/kg/injection, schedule: Q04DX003 (ip), vehicle: carboxymethylcellulose (CMC) 100 % of control

O=C(CCBr)Nc1ccc(Cl)cc1C(=O)c1ccccc1
inactive: [8] 102 % of control | [9] 97 % of control | dose: 400.0 mg/kg/injection, schedule: Q01DX009 (ip), vehicle: Klucel (hydroxypropylcellulose) (HPC) 100 % of control

O=C(Nc1ccc2ncccc2c1)Nc1ccc2ncccc2c1
inactive: [2] 90 % of control | [3] 89 % of control | [8] 93 % of control | [9] 93 % of control | dose: 200.0 mg/kg/injection, schedule: Q04DX003 (ip), vehicle: Klucel (hydroxypropylcellulose) (HPC) 86 % of control

NC(=S)N/N=C/c1ccc(C(F)(F)F)cn1
inactive: dose: 13.3 mg/kg/injection, schedule: Q04DX003 (ip), vehicle: saline with Tween-80 108 % of control | dose: 20.0 mg/kg/injection, schedule: Q04DX003 (ip), vehicle: saline with Tween-80 103 % of control | dose: 30.0 mg/kg/injection, schedule: Q04DX003 (ip), vehicle: saline with Tween-80 113 % of control | dose: 45.0 mg/kg/injection, schedule: Q04DX003 (ip), vehicle: saline with Tween-80 112 % of control | dose: 67.5 mg/kg/injection, schedule: Q04DX003 (ip), vehicle: saline with Tween-80 111 % of control

CC(C)=CCC/C(C)=C/CN1C(=O)CN(C)C1=O
inactive: dose: 50.0 mg/kg/injection, schedule: Q01DX009 (ip), vehicle: saline 98 % of control | [10] 100 % of control | dose: 100.0 mg/kg/injection, schedule: Q01DX009 (ip), vehicle: saline 101 % of control | [11] 103 % of control | dose: 200.0 mg/kg/injection, schedule: Q01DX009 (ip), vehicle: saline 98 % of control | [12] 100 % of control

C[N+](C)(C)CCC1CCCCC1
inactive: [13] 102 % of control

COc1ccc2c(c1)sc1ncnc(N)c12
inactive: [2] 105 % of control | [8] 105 % of control | [9] 101 % of control

CCC(CC)=NNC(N)=O
inactive: [1] 104 % of control | [3] 100 % of control | [4] 103 % of control and 104 % of control

C=CCOC(=O)C1OC12CCCCC2 (stereo unspecified)
inactive: dose: 50.0 mg/kg/injection, schedule: Q01DX001 (ip), vehicle: saline 104 % of control | [10] 95 % of control | [11] 101 % of control | [12] 98 % of control

N=C(N)N=Nc1c(O)[nH]c2ccccc12
inactive: dose: 15.0 mg/kg/injection, schedule: Q01DX Z (ip), vehicle: saline 103 % of control | dose: 30.0 mg/kg/injection, schedule: Q01DX Z (ip), vehicle: saline 100 % of control | dose: 37.5 mg/kg/injection, schedule: Q01DX Z (oral), vehicle: carboxymethylcellulose (CMC) 102 % of control | dose: 60.0 mg/kg/injection, schedule: Q01DX Z (ip), vehicle: saline 94 % of control | dose: 75.0 mg/kg/injection, schedule: Q01DX Z (oral), vehicle: carboxymethylcellulose (CMC) 98 % of control | dose: 120.0 mg/kg/injection, schedule: Q01DX Z (ip), vehicle: saline 90 % of control | dose: 120.0 mg/kg/injection, schedule: Q01DX Z (oral), vehicle: other 95 % of control | dose: 150.0 mg/kg/injection, schedule: Q01DX Z (oral), vehicle: carboxymethylcellulose (CMC) 105 % of control | dose: 240.0 mg/kg/injection, schedule: Q01DX Z (oral), vehicle: other 98 % of control

COc1c(-c2cc(C)nc(NC#N)n2)c(O)c(OC)c2occc12
inactive: dose: 100.0 mg/kg/injection, schedule: Q04DX002 (ip), vehicle: Klucel (hydroxypropylcellulose) (HPC) 109 % of control | dose: 200.0 mg/kg/injection, schedule: Q04DX002 (ip), vehicle: Klucel (hydroxypropylcellulose) (HPC) 98 % of control | dose: 400.0 mg/kg/injection, schedule: Q04DX002 (ip), vehicle: Klucel (hydroxypropylcellulose) (HPC) 98 % of control

CCCC(=O)Nc1ccc(Cl)c(Cl)c1
inactive: dose: 100.0 mg/kg/injection, schedule: Q04DX003 (ip), vehicle: saline with Tween-80 98 % of control | dose: 200.0 mg/kg/injection, schedule: Q04DX003 (ip), vehicle: saline with Tween-80 102 % of control | dose: 400.0 mg/kg/injection, schedule: Q04DX003 (ip), vehicle: saline with Tween-80 89 % of control

Cc1ccc(NC(=O)Nc2ccccc2)cc1Cl
inactive: dose: 100.0 mg/kg/injection, schedule: Q01DX009 (sc), vehicle: olive oil, sesame oil, peanut oil 100 % of control | dose: 100.0 mg/kg/injection, schedule: Q04DX003 (sc), vehicle: olive oil, sesame oil, peanut oil 100 % of control | dose: 200.0 mg/kg/injection, schedule: Q01DX009 (sc), vehicle: olive oil, sesame oil, peanut oil 96 % of control | dose: 200.0 mg/kg/injection, schedule: Q04DX003 (sc), vehicle: olive oil, sesame oil, peanut oil 99 % of control | dose: 400.0 mg/kg/injection, schedule: Q01DX009 (sc), vehicle: olive oil, sesame oil, peanut oil 91 % of control | dose: 400.0 mg/kg/injection, schedule: Q04DX003 (sc), vehicle: olive oil, sesame oil, peanut oil 100 % of control

CN(C)CCCn1nc(-c2ccccc2)oc1=O
inactive: [13] 96 % of control | dose: 150.0 mg/kg/injection, schedule: Q01DX001 (ip), vehicle: saline 87 % of control

— PubChem BioAssay AID248 (DTP/NCI, 2004)
